pKi: −log10 of the molar value. Like-named read-outs stand apart in the source and are kept apart here.
Experiments:
Experiment in all cases: biochemical
Type in all cases: binding
α2β2 nAChR subtype = molecular target: T1, α2β2 nAChR subtype (Rattus norvegicus, UniProt P12389+P12390)
T1 construct: expressed in transfected cells
From the text: (§1) In order to assess the steric and hydropathic effects of the C-5 substituents of the pyridine on the binding affinity and subtype-selectivity at neuronal nicotinic acetylcholine receptors. […] The binding affinity ratios for a ligand, calculated from its affinities at an α subunit paired with either the β2 osubunit or the β4 subunit, represents a measure of the selectivity of that ligand with regard to the β subunits.

α2β4 nAChR subtype = molecular target: T2, α2β4 nAChR subtype (Rattus norvegicus, UniProt P12389+P12392)
T2 construct: expressed in transfected cells
From the text: as §1

α3β2 nAChR subtype = molecular target: T3, α3β2 nAChR subtype (Rattus norvegicus, UniProt P04757+P12390)
T3 construct: expressed in transfected cells
From the text: as §1

α3β4 nAChR subtype = molecular target: T4, α3β4 nAChR subtype (Rattus norvegicus, UniProt P04757+P12392)
T4 construct: expressed in transfected cells
From the text: as §1

α4β2 nAChR subtype = molecular target: T5, α4β2 nAChR subtype (Rattus norvegicus, UniProt P09483+P12390)
T5 construct: expressed in transfected cells
From the text: as §1

α4β4 nAChR subtype = molecular target: T6, α4β4 nAChR subtype (Rattus norvegicus, UniProt P09483+P12392)
T6 construct: expressed in transfected cells
From the text: as §1

[1] = molecular target: T7, receptors in rat forebrain (mainly α4β2) (Rattus norvegicus, UniProt P09483+P12390)
T7 construct: from tissue; host or cells: rat forebrain homogenate
From the text: as §1
In Vitro Inhibition of ^3H-Epibatidin Binding
The high affinity binding site for ^3H-epibatidin is most certainly binding to the α4β2 subtype of nicotinic receptors. The identity of the low affinity site is still believed to be unknown.
Tissue preparation: Preparations may be performed at 0-4° C. unless otherwise indicated. […] The tissue suspension may then be centrifuged at 27,000×g for 10 min. The supernatant is then discarded and the pellet may then be washed three times by centrifugation at 27,000×g for 10 min in 20 mL fresh buffer, and the final pellet may be resuspended in fresh buffer (400 mL per g of original tissue) and used for binding assays.
Assay: Aliquots of 2.0 mL homogenate may be added to 0.100 mL of test solution and 0.100 mL of ^3H-epibatidin (0.3 nM, final concentration), mixed and incubated for 60 min at room temperature. […] The amount of radioactivity on the filters may be determined by conventional liquid scintillation counting. Specific binding is total binding minus non-specific binding.

[2] = Ki α2β2, Table 5, rat nAChR subtypes
[3] = Ki α2β4, Table 5, rat nAChR subtypes
[4] = Ki α3β2, Table 5, rat nAChR subtypes
[5] = Ki α3β4, Table 5, rat nAChR subtypes
[6] = Ki α4β2, Table 5, rat nAChR subtypes
[7] = Ki α4β4, Table 5, rat nAChR subtypes
[8] = Ki α4β2*, Table 5, *Rat forebrain, mainly α4β2
[9] = Ki α3β4, Table 1, mean of 3 (1, 2: 3 to 6) independent measurements
[10] = Ki α4β2, Table 1, mean of 3 (1, 2: 3 to 6) independent measurements

T4 sequence (P04757 26-499): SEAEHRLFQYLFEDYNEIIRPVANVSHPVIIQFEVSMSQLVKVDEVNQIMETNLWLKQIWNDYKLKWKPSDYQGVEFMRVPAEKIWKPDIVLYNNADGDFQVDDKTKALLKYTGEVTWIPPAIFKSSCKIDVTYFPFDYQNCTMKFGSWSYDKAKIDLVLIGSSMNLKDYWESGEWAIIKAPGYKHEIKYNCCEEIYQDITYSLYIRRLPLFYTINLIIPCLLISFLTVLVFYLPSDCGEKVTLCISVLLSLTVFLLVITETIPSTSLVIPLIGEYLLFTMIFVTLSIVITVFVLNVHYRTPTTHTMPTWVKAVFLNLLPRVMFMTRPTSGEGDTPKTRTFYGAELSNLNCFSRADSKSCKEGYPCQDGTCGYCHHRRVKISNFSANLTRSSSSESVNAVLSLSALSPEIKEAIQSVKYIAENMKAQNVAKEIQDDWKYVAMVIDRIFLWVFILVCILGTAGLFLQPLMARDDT
T4 sequence (P12392 21-495): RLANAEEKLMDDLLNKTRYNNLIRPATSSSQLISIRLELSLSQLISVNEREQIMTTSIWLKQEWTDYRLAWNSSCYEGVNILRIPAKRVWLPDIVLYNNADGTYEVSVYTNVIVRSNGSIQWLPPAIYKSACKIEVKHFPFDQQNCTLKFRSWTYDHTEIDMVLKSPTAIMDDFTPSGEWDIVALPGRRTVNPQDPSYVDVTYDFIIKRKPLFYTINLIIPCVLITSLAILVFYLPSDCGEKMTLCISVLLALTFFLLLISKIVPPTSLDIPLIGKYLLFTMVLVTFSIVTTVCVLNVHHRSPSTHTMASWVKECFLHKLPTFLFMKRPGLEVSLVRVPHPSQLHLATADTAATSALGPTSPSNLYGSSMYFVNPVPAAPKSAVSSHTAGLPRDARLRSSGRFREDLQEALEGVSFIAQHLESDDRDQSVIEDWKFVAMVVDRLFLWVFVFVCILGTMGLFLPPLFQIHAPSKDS
T7 sequence (P09483 31-630): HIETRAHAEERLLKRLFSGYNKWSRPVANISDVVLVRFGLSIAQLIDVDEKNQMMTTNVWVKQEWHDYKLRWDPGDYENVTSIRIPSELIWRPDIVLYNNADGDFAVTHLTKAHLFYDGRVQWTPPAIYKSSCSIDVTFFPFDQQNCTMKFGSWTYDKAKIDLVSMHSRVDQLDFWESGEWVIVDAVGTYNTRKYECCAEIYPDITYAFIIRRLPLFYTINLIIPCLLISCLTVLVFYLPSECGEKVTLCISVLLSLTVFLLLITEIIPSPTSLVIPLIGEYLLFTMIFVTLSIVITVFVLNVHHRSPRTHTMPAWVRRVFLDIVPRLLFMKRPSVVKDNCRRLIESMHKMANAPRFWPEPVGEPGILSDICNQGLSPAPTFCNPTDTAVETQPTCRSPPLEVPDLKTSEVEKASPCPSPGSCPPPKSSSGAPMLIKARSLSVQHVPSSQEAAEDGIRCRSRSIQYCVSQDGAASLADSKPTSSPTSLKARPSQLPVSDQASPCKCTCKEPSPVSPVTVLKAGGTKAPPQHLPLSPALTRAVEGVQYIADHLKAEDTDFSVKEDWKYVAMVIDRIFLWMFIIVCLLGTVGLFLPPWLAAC
T7 sequence (P12390 25-500): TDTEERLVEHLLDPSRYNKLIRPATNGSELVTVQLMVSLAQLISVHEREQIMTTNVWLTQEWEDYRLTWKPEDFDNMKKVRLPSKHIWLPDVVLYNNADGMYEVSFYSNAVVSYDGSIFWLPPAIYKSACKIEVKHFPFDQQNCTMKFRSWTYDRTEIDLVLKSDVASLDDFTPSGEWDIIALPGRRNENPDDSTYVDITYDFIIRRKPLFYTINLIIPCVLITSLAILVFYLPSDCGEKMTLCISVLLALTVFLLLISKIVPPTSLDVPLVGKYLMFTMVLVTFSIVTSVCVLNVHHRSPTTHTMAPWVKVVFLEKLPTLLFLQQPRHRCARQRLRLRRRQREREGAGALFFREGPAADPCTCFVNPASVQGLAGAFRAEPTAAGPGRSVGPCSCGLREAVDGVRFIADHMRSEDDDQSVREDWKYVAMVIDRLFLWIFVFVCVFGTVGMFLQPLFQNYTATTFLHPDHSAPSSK
T6 sequence (P12392 21-495): as the sequence (P12392 21-495) above
T6 sequence (P09483 31-630): as the sequence (P09483 31-630) above
T5 sequence (P12390 25-500): as the sequence (P12390 25-500) above
T5 sequence (P09483 31-630): as the sequence (P09483 31-630) above
T1 sequence (P12390 25-500): as the sequence (P12390 25-500) above
T1 sequence (P12389 28-511): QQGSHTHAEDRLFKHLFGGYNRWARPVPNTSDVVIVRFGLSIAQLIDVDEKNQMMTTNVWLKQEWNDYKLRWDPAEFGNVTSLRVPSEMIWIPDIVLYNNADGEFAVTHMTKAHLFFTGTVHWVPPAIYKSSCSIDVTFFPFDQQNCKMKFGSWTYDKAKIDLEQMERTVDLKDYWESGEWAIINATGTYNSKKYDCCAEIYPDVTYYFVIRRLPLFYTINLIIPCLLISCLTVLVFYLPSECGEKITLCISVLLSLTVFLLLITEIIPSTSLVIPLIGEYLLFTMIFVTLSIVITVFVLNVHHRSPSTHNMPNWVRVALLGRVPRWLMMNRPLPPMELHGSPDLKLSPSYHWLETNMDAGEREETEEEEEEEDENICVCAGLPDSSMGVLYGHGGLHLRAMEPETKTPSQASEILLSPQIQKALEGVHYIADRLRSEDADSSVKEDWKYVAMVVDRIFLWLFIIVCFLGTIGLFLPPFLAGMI
T3 sequence (P12390 25-500): as the sequence (P12390 25-500) above
T3 sequence (P04757 26-499): as the sequence (P04757 26-499) above
T2 sequence (P12389 28-511): as the sequence (P12389 28-511) above
T2 sequence (P12392 21-495): as the sequence (P12392 21-495) above

Row | SMILES | pKi (α2β2 nAChR subtype; [2]) | pKi (α2β4 nAChR subtype; [3]) | pKi (α3β2 nAChR subtype; [4]) | pKi (α3β4 nAChR subtype; [5]) | pKi (α4β2 nAChR subtype; [6]) | pKi (α4β4 nAChR subtype; [7]) | pKi [1, 8] | pKi (α2β2 nAChR subtype) | pKi (α2β4 nAChR subtype) | pKi (α3β2 nAChR subtype) | pKi (α4β2 nAChR subtype) | pKi (α4β4 nAChR subtype) | pKi [1] | other results
1 | O=C1CC2NC1CC2c1ccc(Cl)nc1 (stereo not drawn) [Ligand 4, 2-exo-(2-Chloro-5-pyridyl)-7-azabicyclo[2.2.1]heptan-5-one] | 6.19 | 5.94 | 5.72 | 5.35 | 5.15 | 5.49 | 5.34 | – | – | – | – | – | – | –
2 | Clc1ccc(C2CC3CCC2N3CCN2C3CCC2CC3)cn1 (stereo not drawn) [ZW-84] | 8.15 | 7.78 | 7.68 | 7.17 | 7.66 | 7.07 | 6.95 | – | – | – | – | – | – | –
3 | OC1C2CCC(N2)C1c1ccc(Cl)nc1 (single isomer, unassigned) [Ligand 2] | 6.09 | 6.21 | 5.95 | 5.93 | 5.63 | 6.29 | 5.69 | – | – | – | – | – | – | –
4 | CC(N)C#Cc1cncc(OC[C@@H]2CCCN2C)c1 (stereo partly drawn) [ZW-99] | – | – | – | – | – | – | – | 8.12 | 5.13 | 7.32 | 8.14 | 5.21 | 7.38 | pKi (α3β4 nAChR subtype): 3.90
5 | CN1CCC[C@H]1COc1cncc(C#CCCCCCCCCO)c1 [Ligand 17] | – | – | – | – | – | – | – | – | – | – | – | – | – | pKi (α2β2 nAChR subtype; Ki α2β2, Table 1, mean of 3 (1, 2: 3 to 6) independent measurements): 7.57; pKi (α2β4 nAChR subtype; Ki α2β4, Table 1, mean of 3 (1, 2: 3 to 6) independent measurements): 5.11; pKi (α3β2 nAChR subtype; Ki α3β2, Table 1, mean of 3 (1, 2: 3 to 6) independent measurements): 7.28; pKi (α3β4 nAChR subtype; [9]): 4.20; pKi (α4β2 nAChR subtype; [10]): 8.19; pKi (α4β4 nAChR subtype; Ki α4β4, Table 1, mean of 3 (1, 2: 3 to 6) independent measurements): 5.45; pKi ([1]; Ki Rat forebrain, Table 1, mean of 3 (1, 2: 3 to 6) independent measurements): 7.66
6 | O=c1cccc2n1C[C@@H]1CNC[C@H]2C1 [Cytisine, reference compound] | – | – | – | – | – | – | – | 9.24 | 8.45 | 8.09 | 8.87 | 8.82 | 8.59 | pKi (α3β4 nAChR subtype; Table 5, rat nAChR subtypes, read-out: Ki α3β4): 6.68
7 | CN1CCC[C@H]1COc1cncc(C#CC(C)(C)O)c1 [Ligand 15] | – | – | – | – | – | – | – | 8.71 | 5.23 | 7.71 | 8.87 | 5.30 | 8.08 | pKi (α3β4 nAChR subtype): 4.49
8 | CN1CCC[C@H]1COc1cncc(CCCCCCO)c1 [Ligand 19] | – | – | – | – | – | – | – | 8.48 | 5.94 | 7.87 | – | 6.01 | 8.27 | pKi (α3β4 nAChR subtype; [9]): 4.70; pKi (α4β2 nAChR subtype; [10]): 9.12
9 | Clc1ccc(C2CC3CC4(OCCO4)C2N3)cn1 (stereo not drawn) [ZW-82] | 7.52 | 7.03 | 6.83 | 6.76 | 7.24 | 7.27 | 6.52 | – | – | – | – | – | – | –
10 | O[C@H]1C[C@H]2C[C@H](c3ccc(Cl)nc3)[C@@H]1N2 (relative stereo) [Ligand 9, 2-exo-(2-Chloro-5-pyridyl)-6-endo-hydroxyl-7-azabicyclo[2.2.1]heptane] | 8.81 | 8.23 | 8.87 | 7.56 | 9.04 | 8.25 | 8.39 | – | – | – | – | – | – | –
11 | O=c1cccc2n1C[C@H]1C[C@@H]2CN(CCCOc2cccnc2)C1 [ZW-17] | – | – | – | – | – | – | – | 5.53 | 4.85 | < 6.00 | 5.51 | 5.49 | 5.34 | pKi (α3β4 nAChR subtype): < 5.00
12 | FC1CC2CC(c3ccc(Cl)nc3)C1N2 (stereo not drawn) [Ligand 11, 2-exo-(2-Chloro-5-pyridyl)-6-fluoro-7-azabicyclo[2.2.1]heptane] | 9.66 | 9.32 | 9.83 | 8.61 | 9.48 | 9.76 | 9.18 | – | – | – | – | – | – | –

— patent US8030300B2, “Ligands for nicotinic acetylcholine receptors, and methods of making and using them” (priority 2003, dated 2011)
